pIC50: −log10 of the molar value. Read-outs that look alike come from different tables or passages of the source.
Key:
[1] = system: HCT116 cells; test: HCT116 cytological activity in vitro (3D CellTiter-Glo proliferation); type: cell-based, human; conditions: 5 days culture, ultra-low adsorption plates
Description: McCoy's 5A medium, penicillin/streptomycin antibiotics was purchased from Vicente, and fetal bovine serum was purchased from Biosera. 3D CellTiter-Glo (cell viability chemiluminescence assay reagent) reagent was purchased from Promega. HCT116 cell line was purchased from Nanjing Cobioer Biosciences Co., Ltd. Envision multimode microplate reader (PerkinElmer).
HCT116 cells were seeded in ultra-low adsorption 96-well U-plates, 80 μL of cell suspension per well, which contained 1000 HCT116 cells. Cell plates were cultured overnight in a carbon dioxide incubator.
The compound to be tested was 5-fold diluted to the 9th concentration with a pipette, that is, diluted from 2 mM to 5.12 nM, and a double-well experiment was set up. 78 μL of medium was added to the intermediate plate, and then 2 μL of each well of the gradient diluted compound was transferred to the intermediate plate according to the corresponding position, 20 μL of each well was transferred to the cell plate after mixing well. Compound concentrations transferred to cell plates ranged from 10 μM to 0.0256 nM. Cell plates were cultured in a carbon dioxide incubator for 5 days. Another cell plate was prepared, and the signal value was read as the maximum value (Max value in the following equation) on the day of drug addition to participate in data analysis.
Every 100 μL of cell viability chemiluminescent detection reagent was added to the cell plate, and incubated at room temperature for 10 minutes to stabilize the luminescent signal. A multimode microplate reader was used to read.
The equation (Sample−Min)/(Max−Min)*100% was used to convert the original data into an inhibition rate, and the value of IC50 can be obtained by curve fitting with four parameters (“log(inhibitor) vs. response in GraphPad Prism—Variable slope” mode). Table 3 provides the inhibitory activity of the compounds of the present disclosure against the proliferation of HCT116 cells.

[2] = system: human colon cancer HCT116 cells subcutaneous xenograft tumor; test: In vivo pharmacodynamic study, subcutaneous xenograft tumor model of human colon cancer HCT116 cells; parameters: species or system BALB/c Nude mouse; conditions: 60 mg/kg PO QD (5 days on, 2 days off), tumor volume on day 22 after dosing
Description: In this experiment, human colon cancer HCT116 cells were subcutaneously transplanted into BALB/c Nude mouse model to evaluate the antitumor effect of the test compound in vivo.
HCT116 cell culture: 10% fetal calf serum was added to McCoy's 5A medium and cultured in 37° C. 5% CO2 cell incubator. When the cell saturation reached 80% to 90% and the number reached the requirement, cells were collected, counted and inoculated subcutaneously into BALB/c Nude mice (female, 6 to 7 weeks old)
When the tumors grew to a certain size, the animals with tumor volumes that were too large, too small, or with irregular tumor shapes were eliminated, and animals with tumor volumes ranging from 103.12 to 174.35 mm^3 were selected. According to the tumor volume, the animals were divided into 6 groups by random block method, and each group was composed of 6 mice wherein the average volume of the tumor was about 147.12 mm^3 , and the experimental grouping and dosing regimen were shown in Table 5 below. The health status and death of the animals were monitored every day. Routine inspections included observation of tumor growth and the effects of drug treatment on the daily behavior of the animals, such as behavioral activities, food and water intake, body weight changes (measured twice a week), tumor size (tumor volume was measured twice a week), appearance signs or other abnormal conditions.
The formula for calculating tumor volume (TV) was: ½×a×b^2, where a and b were the measured length and width of the tumor, respectively. The formula for calculating the tumor inhibition rate TGI (%) was: TGI (%)=[1−(average tumor volume at the end of administration of a certain treatment group−average tumor volume at the beginning of administration of this treatment group)/(average tumor volume at the end of treatment of the solvent control group−average tumor volume at the beginning of treatment in solvent control group)]×100%.
In this study, the experimental data were expressed as Mean±SEM. Statistical analysis was based on the data of RTV at the end of the experiment using IBM SPSS Statistics software. The comparison between two groups was analyzed by T test, and the comparison between three or more groups was analyzed by one-way ANOVA. If the variances were homogeneous (the F value had no significant difference), the Tukey's method was used for analysis. If the variances were not homogeneous (the F value had significant differences), and the Games-Howell method was used for testing. p<0.05 was considered as a significant difference.

[3] = Pharmacokinetic study in CD-1 male mice by oral administration and intravenous injection; type: in vivo; conditions: for Vd: read-out: Apparent volume of distribution Vdss; for AUC(0-t): read-out: Area under the plasma concentration-time curve AUC0-24 h; for clearance: read-out: Clearance CL; for half-life: read-out: Half-life T½ (converted); for Cmax: read-out: Peak concentration Cmax; for Tmax: read-out: Peak time Tmax; for bioavailability: read-out: Bioavailability F
Description: The purpose of this experiment is to study the pharmacokinetics of the test compound in the plasma of CD-1 male mice after intravenous injection and oral administration.
Intravenous injection group: an appropriate amount of the test compound was weighed and dissolved in 20% SBE-b-CD aqueous solution and the pH was adjusted to 4 to 5 with 6 M hydrochloric acid, and the mixture was vortexed for 2, minutes to obtain a clear solution, and then pH was adjusted around 7 with 5 N sodium hydroxide, and the mixture was vortexed for 1 minute to prepare a 1.5 mg/mL clear solution, which was filtered through a 0.22 μm microporous membrane for later use. CD-1 male mice from 6 to 10 weeks old were selected and given a solution of the test compound intravenously. Samples were collected at 0.083, 0.25, 0.5, 1, 2, 4, 6, 8, and 24 hours.
Oral administration group: an appropriate amount of the test compound was weighed and dissolved in 20% SBE-b-CD aqueous solution, and the pH was adjusted to 3 to 4 with 6 M hydrochloric acid, and the mixture was vortexed for 2, minutes to obtain a clear solution, and then pH was adjusted around 7 with 5 N sodium hydroxide, and mixture was vortexed for 1 minute to prepare a 2.0 mg/mL clear solution for later use. CD-1 male mice between 6 and 10 weeks of age were selected and given the test compounds orally. Samples were collected at 0.25, 0.5, 1, 2, 4, 6, 8, 10, and 24 hours.
Approximately 50 μL of whole blood was collected through the jugular vein at each time point for plasma preparation for concentration determination by high performance liquid chromatography-tandem mass spectrometry (LC-MS/MS). All animals were euthanized under CO2 anesthesia after collecting the PK samples at the last time point. The plasma concentration was processed using the non-compartmental model of WinNonlin™ Version 6.3 (Pharsight, Mountain View, CA) pharmacokinetic software, and the pharmacokinetic parameters were calculated using the linear logarithmic trapezoidal method, and the experimental results are shown in Table 4.

[4] = target: human PLK1 protein kinase (Homo sapiens (Human), UniProt P53350); test: PLK1 kinase activity in vitro, 33P isotope-labeled kinase activity assay; type: biochemical; conditions: 33P-ATP 30 μM, substrate Casein, PLK1 12 nM
Sequence of human PLK1 protein kinase (P53350 whole entry): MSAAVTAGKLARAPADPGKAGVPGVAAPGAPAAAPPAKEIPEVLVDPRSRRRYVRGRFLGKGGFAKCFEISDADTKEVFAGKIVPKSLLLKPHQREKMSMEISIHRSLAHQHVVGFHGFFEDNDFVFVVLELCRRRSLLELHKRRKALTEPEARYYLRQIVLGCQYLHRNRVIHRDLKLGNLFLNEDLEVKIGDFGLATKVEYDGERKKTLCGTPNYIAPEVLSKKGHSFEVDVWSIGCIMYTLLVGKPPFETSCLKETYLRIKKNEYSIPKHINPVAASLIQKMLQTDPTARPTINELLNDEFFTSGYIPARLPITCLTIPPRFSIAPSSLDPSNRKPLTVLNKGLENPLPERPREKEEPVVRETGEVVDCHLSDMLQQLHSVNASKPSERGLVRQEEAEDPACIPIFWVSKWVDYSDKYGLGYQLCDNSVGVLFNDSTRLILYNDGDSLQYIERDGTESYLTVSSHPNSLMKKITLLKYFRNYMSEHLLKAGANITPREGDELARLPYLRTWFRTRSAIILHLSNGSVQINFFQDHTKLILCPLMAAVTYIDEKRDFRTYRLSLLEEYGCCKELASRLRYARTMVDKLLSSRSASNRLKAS
Description: The ^33P isotope-labeled kinase activity assay (Reaction Biology Corp) was used to determine the IC50 value to evaluate the inhibitory ability of the test compound to human PLK1 protein kinase.
Buffer conditions: 20 mM HEPES (pH 7.5), 10 mM MgCl2, 1 mM EGTA, 0.01% Brij35, 0.02 mg/ml BSA, 0.1 mM Na3VO4, 2 mM DTT, 1% DMSO
Test steps: At room temperature, the compounds to be tested were dissolved in DMSO to prepare a 10 mM solution for use. The substrate Casein was dissolved in a freshly prepared buffer (with a final concentration of 20 μM), and the tested PLK1 kinase (with a final concentration of 12 nM) was added thereto and mixed well. The acoustic wave pipetting system Echo 550 was used to add the mother solution of the test compound dissolved in DMSO to the above mixed reaction mixture according to the set final concentration gradient (the highest final concentration was 1 μM, 3-fold dilution, 10 gradients). After incubation at room temperature for 20 minutes, ^33P-ATP (30 μM) was added, and after incubation at room temperature for 120 minutes, the reaction mixture was spotted on P81 ion exchange filter paper (Whatman #3698-915).

[5] = system: KRAS-mutant mCRC patients; conditions: cited from earlier work

CCOc1sc(C(N)=O)c2c1-c1nc(Nc3cc(N4CCN(C)CC4)ccc3OC(F)(F)F)ncc1CC2 [Compound 2]
pIC50 ([1]; Homo sapiens, HCT-116, 120 h): 7.51 | TGI [2]: 72.5% | Vd ([3]; mouse, IV, 1.0 mg/kg, plasma): 2.89 L/kg | AUC(0-t) ([3]; mouse, IV, 1.0 mg/kg, plasma): 0.624 µM·h | clearance ([3]; mouse, IV, 1.0 mg/kg, plasma): 47.9 mL/min/kg | half-life ([3]; mouse, IV, 1.0 mg/kg, plasma): 69 min | AUC(0-t) ([3]; mouse, PO, 3.0 mg/kg, plasma): 1.02 µM·h | Cmax ([3]; mouse, PO, 3.0 mg/kg, plasma): 478 nM | Tmax ([3]; mouse, PO, 3.0 mg/kg, plasma): 45 min | bioavailability ([3]; mouse, plasma, PO 3.0 mg/kg vs IV 1.0 mg/kg): 54.2%

CN1CCN(c2ccc(OC(F)(F)F)c(Nc3ncc4c(n3)-c3c(SCCO)sc(C(N)=O)c3CC4)c2)CC1 [Compound 3]
pIC50 [4]: 8.30

CSc1sc(C(N)=O)c2c1-c1nc(Nc3cc(N4CCN(C)CC4)ccc3OC(F)F)ncc1CC2 [Compound 4]
pIC50 [1]: 7.46 | pIC50 [4]: 9.00

CSc1sc(C(N)=O)c2c1-c1nc(Nc3cc(N4CCN(C)CC4)ncc3OC(F)(F)F)ncc1CC2 [Compound 5]
pIC50 [4]: 8.59

CN1CCN(c2ccc(OC(F)(F)F)c(Nc3ncc4c(n3)-c3c(CCO)sc(C(N)=O)c3CC4)c2)CC1 [Compound 6]
pIC50 [4]: 8.16

CSc1sc(C(N)=O)c2c1-c1nc(Nc3cc(N4CCN(CCO)CC4)ccc3OC(F)(F)F)ncc1CC2 [Compound 8]
pIC50 ([1]; Homo sapiens, HCT-116, 120 h): 7.28 | TGI [2]: 85.4% | Vd ([3]; mouse, IV, 0.5 mg/kg, plasma): 2.04 L/kg | AUC(0-t) ([3]; mouse, IV, 0.5 mg/kg, plasma): 0.374 µM·h | clearance ([3]; mouse, IV, 0.5 mg/kg, plasma): 37.4 mL/min/kg | half-life ([3]; mouse, IV, 0.5 mg/kg, plasma): 44.4 min | AUC(0-t) ([3]; mouse, PO, 2.2 mg/kg, plasma): 0.459 µM·h | Cmax ([3]; mouse, PO, 2.2 mg/kg, plasma): 157 nM | Tmax ([3]; mouse, PO, 2.2 mg/kg, plasma): 45 min | bioavailability ([3]; mouse, plasma, PO 2.2 mg/kg vs IV 0.5 mg/kg): 30.9%

CN1CCN(c2ccc(OC(F)(F)F)c(Nc3ncc4c(n3)-c3c(C#N)sc(C(N)=O)c3CC4)c2)CC1 [Compound 13]
pIC50 [4]: 8.31

CSc1sc(C(N)=O)c2c1-c1nc(Nc3cc(N4CC5CC(C4)N5C)ccc3OC(F)(F)F)ncc1CC2 [Compound 15]
pIC50 [4]: 8.19

CN1CCN(c2ccc(OC(F)(F)F)c(Nc3ncc4c(n3)-c3c(C5CC5)sc(C(N)=O)c3CC4)c2)CC1 [Compound 16]
pIC50 ([1]; Homo sapiens, HCT-116, 120 h): 7.53

COc1nnc(N2CCN(C)CC2)cc1Nc1ncc2c(n1)-c1c(SC)sc(C(N)=O)c1CC2 [Compound 17]
pIC50 ([1]; Homo sapiens, HCT-116, 120 h): 7.74

CN1CCN(c2ccc(OC(F)(F)F)c(Nc3ncc4c(n3)-c3c(OC5CC5)sc(C(N)=O)c3CC4)c2)CC1 [Compound 18]
pIC50 [1]: 7.13 | pIC50 [4]: 8.37 | Apparent volume of distribution Vdss ([3]; IV, 1.1 mg/kg, plasma): 2.38 L/kg | Area under the plasma concentration-time curve AUC0-24 h ([3]; IV, 1.1 mg/kg, plasma): 0.94 µM·h | Clearance CL ([3]; IV, 1.1 mg/kg, plasma): 31.4 mL/min/kg | Half-life T½ ([3]; IV, 1.1 mg/kg, plasma): 73.2 min | Bioavailability F ([3]; PO 3.4 mg/kg vs IV 1.1 mg/kg): 82.5% | Area under the plasma concentration-time curve AUC0-24 h ([3]; PO, 3.4 mg/kg, plasma): 2.129 µM·h | Peak time Tmax ([3]; PO, 3.4 mg/kg, plasma): 60 min | Cmax ([3]; PO, 3.4 mg/kg, plasma): 688 nM

CN1CCN(c2ccc(OC(F)(F)F)c(Nc3ncc4c(n3)-c3c(-c5ccco5)sc(C(N)=O)c3CC4)c2)CC1 [Compound 20]
pIC50 ([1]; Homo sapiens, HCT-116, 120 h): 7.23

CSc1sc(C(=O)NO)c2c1-c1nc(Nc3cc(N4CCN(C)CC4)ccc3OC(F)(F)F)ncc1CC2 [Compound 23]
pIC50 ([1]; Homo sapiens, HCT-116, 120 h): 7.14

CN1CCN(c2ccc(OC(F)(F)F)c(Nc3ncc4c(n3)-c3c(c(C(N)=O)nn3CCO)CC4)c2)CC1 [Onvansertib]
safety profile in clinical studies ([5]; clinical studies): acceptable safety profile | clinical benefit ([5]; share of KRAS-mutant mCRC patients, early clinical research): 88%

— patent US20240140962A1, “5,6-DIHYDROTHIENO[3,4-H]QUINAZOLINE COMPOUND” (MEDSHINE DISCOVERY INC., priority 2021, published 2024)
